# Assay results taken from publication PMC11192927, “The potential of a novel enzyme-based surface plasmon resonance biosensor for direct detection of dopamine” (Scientific Reports, 2024).
# Molecular target: laccase (CotA) (Bacillus sp. HR03, UniProt B9W2C5)
# Test: biochemical
# Sequence of laccase (CotA) (B9W2C5 1-513): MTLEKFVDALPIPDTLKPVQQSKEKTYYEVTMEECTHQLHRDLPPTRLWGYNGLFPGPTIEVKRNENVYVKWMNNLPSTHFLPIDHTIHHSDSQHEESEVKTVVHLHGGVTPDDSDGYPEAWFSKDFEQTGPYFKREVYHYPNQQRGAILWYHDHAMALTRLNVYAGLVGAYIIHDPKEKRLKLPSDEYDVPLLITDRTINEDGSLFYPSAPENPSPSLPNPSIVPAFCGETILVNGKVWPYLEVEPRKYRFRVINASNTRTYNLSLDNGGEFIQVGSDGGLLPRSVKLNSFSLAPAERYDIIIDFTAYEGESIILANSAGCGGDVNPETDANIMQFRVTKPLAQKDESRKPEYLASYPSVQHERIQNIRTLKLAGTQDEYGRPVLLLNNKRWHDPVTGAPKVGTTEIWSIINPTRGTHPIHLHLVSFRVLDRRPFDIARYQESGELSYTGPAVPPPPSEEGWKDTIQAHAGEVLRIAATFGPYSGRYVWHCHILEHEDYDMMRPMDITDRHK
compound,measurement,value
NCCc1ccc(O)c(O)c1 [dopamine],Kd,48.5 nM
